In US20180030093A1, “SELF-ASSEMBLING ULTRASHORT ALIPHATIC CYCLIC PEPTIDES FOR BIOMEDICAL APPLICATIONS” (Agency for Science, Technology and Research, priority 2015, published 2018):
Entries after “also recorded” stand apart in the source; their conditions may differ. Values belong to the compound of their own block, whether it stands above or below them. Non-standard residues stand in square brackets, D forms with d. Residues, ends and D or L forms follow the SMILES beside them.

Columns and labels:
[1] = Stimuli response of gelation to salt (1× PBS); type: physicochemical; details: 5 mg/mL in 1× PBS, after vortexing
Experimental: Our previous studies on the parent peptide Ac-LIVAGK-NH2 have shown stimuli responsive behaviour to salt, which allows to reduce the minimum gelation concentration by 50%. […] For this purpose, cLK6 was dissolved in 9 parts of water and afterwards 1 part of 10× PBS solution was added.

[2] = Solubility of the cyclic peptides in MilliQ water
Experimental: (§1) In order to determine the minimum gelation concentration in water, the cyclic peptides were attempted to be dissolved in MilliQ water.
(§2) In order to introduce a charged amino acid residue cLK6 was synthesized and its ability to form hydrogels was investigated. For this purpose cLK6 was dissolved at a concentration of 10 mg/mL in water.

[3] = Gelation / self-assembly in water; type: physicochemical
Experimental: as §1, §2

[4] = stimuli responsive behaviour to salt; applicant's previous studies; cited from earlier work

gel formation ([3]; 5 mg/mL in water, prepared in the same way, overnight): clear hydrogel was formed
gel formation ([3]; 10 mg/mL in water, heated at 60° C., then standing at room temperature): opaque sol gel was formed
gel formation ([3]; peptide concentration further reduced below 5 mg/mL in water): no hydrogel formation
Compound: CC[C@H](C)[C@@H]1NC(=O)[C@@H](CC(C)C)NC(=O)[C@H](CCCCN)NC(=O)CNC(=O)[C@H](C)NC(=O)[C@@H](C(C)C)NC1=O [cLK6, cLIVAGK] (cyclo([dL]I[dV]AGK))
gel formation in salt solution [1]: only peptide aggregation, resulting in precipitation
solubility in water at 10 mg/mL ([2]; 10 mg/mL in water): full solubility was only achieved, when the peptide solution was heated at 60 °C for about 2 h

Compound: CC[C@H](C)[C@@H]1NC(=O)[C@@H](CC(C)C)NC(=O)[C@H](CO)NC(=O)CNC(=O)[C@H](C)NC(=O)[C@@H](C(C)C)NC1=O [cLS6, cLIVAGS] (cyclo([dL]I[dV]AGS))
solubility in water ([2]; MilliQ water): low solubility; also recorded: limited water solubility
self-assembly in water ([3]; dissolved in hexafluoroisopropanol (HFIP) and dropped slowly into water): gelatinous “precipitate” is formed; also recorded: still displays self-assembling properties

Compound: Ac-LIVAGK-NH2 [linear parent ultrashort peptide of cLK6, previously reported by the inventors]
reduction of the minimum gelation concentration by salt [4]: 50%
